# Structures can show the parent of a compound that is named as a salt.
row,SMILES,melting point
1,CN1CCCN(c2cccc([N+](=O)[O-])c2)CC1,163.1 to 164.4 °C
2,CN1CCN(c2cnc3ccccc3c2)CC1,116.5 to 117 °C
3,c1ccc2ncc(N3CCNCC3)cc2c1,87.7 to 88.5 °C
4,Clc1ccc(N2CCCNCC2)cn1,165 to 167 °C
5,C=COc1cncc(N2CCN(C)CC2)c1 (as salt: fumaric acid salt),136.4 to 138.2 °C
6,O=S(=O)(Oc1cncc(N2CCCNCC2)c1)C(F)(F)F (as salt: fumaric acid salt),154 to 156 °C
7,C#Cc1cncc(N2CCCNCC2)c1 (as salt: fumaric acid salt),172.5 to 174 °C
8,CCOCCOc1cncc(N2CCCNCC2)c1 (as salt: fumaric acid salt),139.3 to 140.4 °C
9,O=[N+]([O-])c1cccc(N2CCCNCC2)c1 (as salt: fumaric acid salt),163.1 to 164.4 °C
10,CCCCCCCOc1cncc(N2CCCNCC2)c1 (as salt: fumaric acid salt),132.8 to 136.6 °C
11,COc1cccc(N2CCCNCC2)c1 (as salt: fumaric acid salt),164.1 to 165.7 °C
12,Oc1cccc(N2CCCNCC2)c1 (as salt: fumaric acid salt),165 °C (dec.)
13,CN1CCCN(c2ccc(-c3ccccc3)nn2)CC1 (as salt: fumaric acid salt),185 to 186 °C
14,CN1CCCN(c2cccnn2)CC1 (as salt: fumaric acid salt),137.8 to 139.3 °C
15,Cc1ccc(N2CCCN(C)CC2)nn1 (as salt: fumaric acid salt),152 to 153 °C
16,c1cncc(-c2cncc(N3CCCNCC3)c2)c1 (as salt: fumaric acid salt),160 to 162 °C
17,c1ccc2c(c1)ccn2-c1cncc(N2CCCNCC2)c1 (as salt: fumaric acid salt),193 to 195 °C

row,SMILES,melting point
1,c1ccc(-c2ccc(N3CCCNCC3)nn2)cc1 (as salt: fumaric acid salt),187 to 189 °C
2,COc1cc(N2CCCNCC2)cnc1OC (as salt: fumaric acid salt),150 to 152 °C
3,C=COc1cncc(N2CCNCC2)c1 (as salt: fumaric acid salt),136.4 to 138.2 °C
4,COc1cnc(Cl)c(N2CCCNCC2)c1 (as salt: fumaric acid salt),117 to 118 °C
5,C=COc1cncc(N2CCCNCC2)c1 (as salt: fumaric acid salt),143 to 144 °C
6,Cc1cnc(C)c(N2CCCNCC2)n1 (as salt: fumaric acid salt),149 to 151 °C
7,c1ccc(-c2cncc(N3CCNCC3)c2)cc1 (as salt: fumaric acid salt),167.5 to 168.5 °C
8,CCOc1cncc(N2CCCNCCC2)c1 (as salt: fumaric acid salt),162.5 to 164.5 °C
9,c1ncc(N2CCCNCC2)cc1OC1CCCC1 (as salt: fumaric acid salt),148 to 150 °C
10,CCCOc1cncc(N2CCCNCCC2)c1 (as salt: fumaric acid salt),150 to 152 °C
11,CCOc1cc(N2CCCNCC2)cnc1Br (as salt: fumaric acid salt),181.7 to 183.2 °C
12,c1cc(N2CCCC2)ncc1N1CCCNCC1 (as salt: fumaric acid salt),148.6 to 150.5 °C
13,CCCCOc1cncc(N2CCN(C)CC2)c1 (as salt: fumaric acid salt),136.9 to 139.2 °C
14,C=COc1cncc(N2CCCNCCC2)c1 (as salt: fumaric acid salt),142 to 144 °C
15,CC(C)CCOc1cncc(N2CCCNCC2)c1 (as salt: fumaric acid salt),139.9 to 142 °C
16,Brc1cncc(N2CCCNCC2)c1 (as salt: fumaric acid salt),180.7 to 185.4 °C
17,c1ccc2c(N3CCCNCC3)cncc2c1 (as salt: fumaric acid salt),160 to 162 °C
